According to PubChem BioAssay AID328 (DTP/NCI, 2004):
Values joined by “and” are separate entries in the source; they are usually repeats but may differ in a detail not shown here. Equal values may be shown once. Inconclusive results and toxic doses are left out. Positions of bridges follow the written chain, without caps; N, C: chain ends. Non-standard residues stand in square brackets, D forms with d. Residues, ends and D or L forms follow the SMILES beside them. NMeV = CN[CH](C(=O)O)C(C)C; Sar = CNCC(=O)O

Test system: BDF1 mice, P388 leukemia ip, median survival T/C
Assay: NCI In Vivo Anticancer Drug Screen. Data for tumor model P388 Leukemia (intraperitoneal) in B6D2F1 (BDF1) mice
Settings: endpoint: median survival time, higher = longer survival
Method in brief: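 In tumour-bearing mice, survival after compound treatment is set against the vehicle group and given as a quotient.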

[1] = dose: 25.0 mg/kg/injection, schedule: Q04DX003 (ip), vehicle: Klucel (hydroxypropylcellulose) (HPC)
[2] = dose: 50.0 mg/kg/injection, schedule: Q01DX009 (ip), vehicle: Klucel (hydroxypropylcellulose) (HPC)
[3] = dose: 50.0 mg/kg/injection, schedule: Q04DX003 (ip), vehicle: Klucel (hydroxypropylcellulose) (HPC)
[4] = dose: 100.0 mg/kg/injection, schedule: Q01DX009 (ip), vehicle: Klucel (hydroxypropylcellulose) (HPC)
[5] = dose: 100.0 mg/kg/injection, schedule: Q04DX003 (ip), vehicle: Klucel (hydroxypropylcellulose) (HPC)
[6] = dose: 25.0 mg/kg/injection, schedule: Q04DX003 (ip), vehicle: saline with Tween-80
[7] = dose: 50.0 mg/kg/injection, schedule: Q04DX003 (ip), vehicle: saline with Tween-80
[8] = dose: 100.0 mg/kg/injection, schedule: Q04DX003 (ip), vehicle: saline with Tween-80
[9] = dose: 200.0 mg/kg/injection, schedule: Q04DX003 (ip), vehicle: saline with Tween-80
[10] = dose: 200.0 mg/kg/injection, schedule: Q01DX009 (ip), vehicle: Klucel (hydroxypropylcellulose) (HPC)
[11] = dose: 400.0 mg/kg/injection, schedule: Q01DX009 (ip), vehicle: Klucel (hydroxypropylcellulose) (HPC)
[12] = dose: 50.0 mg/kg/injection, schedule: Q01DX009 (ip), vehicle: saline with Tween-80
[13] = dose: 100.0 mg/kg/injection, schedule: Q01DX009 (ip), vehicle: saline with Tween-80
[14] = dose: 200.0 mg/kg/injection, schedule: Q01DX009 (ip), vehicle: saline with Tween-80

`O=C1C(c2ccccc2)=S=C2Sc3ccccc3N12` was tested, and the T/C (dose: 25.0 mg/kg/injection, schedule: Q01DX009 (ip), vehicle: Klucel (hydroxypropylcellulose) (HPC)) was 100 % of control, the T/C [1] was 90 % of control and the T/C [2] was 110 % of control. For the same molecule, the T/C [3] was 90 % of control, the T/C [4] was 105 % of control and the T/C [5] was 100 % of control.

`CC(C)(C)Cc1cc(O)c2c(c1O)C(=O)c1ccccc1C2=O` was tested, and the T/C [6] was 100 % of control, the T/C [7] was 102 % of control and the T/C [8] was 95 % of control.

For `COC(=O)c1[nH]c(=O)[nH]c(=O)c1F`, the T/C [6] was 113 % of control, the T/C [8] was 122 % of control and the T/C [9] was 90 % of control.

With `NC(=O)N/N=C(\CF)C(=O)O` the T/C (dose: 6.0 mg/kg/injection, schedule: Q01DX009 (ip), vehicle: Klucel (hydroxypropylcellulose) (HPC)) was 105 % of control, the T/C (dose: 12.0 mg/kg/injection, schedule: Q01DX009 (ip), vehicle: Klucel (hydroxypropylcellulose) (HPC)) was 105 % of control and the T/C (dose: 24.0 mg/kg/injection, schedule: Q01DX009 (ip), vehicle: Klucel (hydroxypropylcellulose) (HPC)) was 115 % of control. The T/C (dose: 48.0 mg/kg/injection, schedule: Q01DX009 (ip), vehicle: Klucel (hydroxypropylcellulose) (HPC)) was 105 % of control.

In the case of `CC1=NN(c2ccccc2)C(=O)/C1=C\c1ccc(N(CCC#N)CCC#N)cc1`, the T/C [2] is reported as 87 % of control, the T/C [4] is reported as 93 % of control and the T/C [10] is reported as 87 % of control. For the same molecule, the T/C [11] was 91 % of control.

With `N#CCc1nc2ccccc2[nH]1` the T/C [2] was 104 % of control, the T/C [4] was 109 % of control and the T/C [10] was 95 % of control.

In the case of `S=C(N/N=C/c1ccc(-c2ccccc2)cc1)Nc1ccccc1`, the T/C [12] is reported as 91 % of control, the T/C [7] is reported as 95 % of control and the T/C [13] is reported as 91 % of control. For the same molecule, the T/C [8] was 91 % of control, the T/C [14] was 91 % of control and the T/C [9] was 91 % of control.

With `CCCC(O)C(C)(C)[N+](=O)[O-]` (stereo not given) the T/C (dose: 6.25 mg/kg/injection, schedule: Q01DX009 (ip), vehicle: saline with Tween-80) was 99 % of control and the T/C (dose: 12.5 mg/kg/injection, schedule: Q01DX009 (ip), vehicle: saline with Tween-80) was 89 % of control.

In the case of `O=C(CN1CCCCC1)c1ccc2c(c1)Cc1cc(C(=O)CN3CCCCC3)ccc1O2`, the T/C [12] is reported as 98 % of control and the T/C [13] is reported as 90 % of control.

In the case of `CCOc1c(Cl)cc(Cl)cc1C(c1ccc(Cl)cc1S(=O)(=O)O)c1cc(Cl)cc(Cl)c1OCC`, the T/C (dose: 25.0 mg/kg/injection, schedule: Q01DX009 (ip), vehicle: saline with Tween-80) is reported as 108 % of control and the T/C [12] is reported as 116 % of control.

For `O=c1[nH]c(=O)n(CC(O)c2ccc(Cl)s2)cc1F` (stereo not given), the T/C [9] was 103 % of control and the T/C (dose: 400.0 mg/kg/injection, schedule: Q04DX003 (ip), vehicle: saline with Tween-80) was 117 % of control.

With `CN(C)c1ccc(/C=C/c2ccnc3c(-c4ccccc4)cccc23)cc1` the T/C [12] was 89 % of control and the T/C [13] was 91 % of control.

`CC1=CC(=NN=c2cc(C)n([O-])c(C)c2)C=C(C)[N+]1=O` was tested, and the T/C (dose: 12.5 mg/kg/injection, schedule: Q01DX010 (ip), vehicle: saline) was 91 % of control and 104 % of control and 114 % of control.

`Nc1cccnc1` was tested, and the T/C (dose: 5.0 mg/kg/injection, schedule: Q01DX009 (ip), vehicle: saline) was 100 % of control and the T/C (dose: 10.0 mg/kg/injection, schedule: Q01DX009 (ip), vehicle: saline) was 110 % of control.

For `CC(N)C(=O)NC(C)C(=O)O` (stereo not given), the T/C (dose: 100.0 mg/kg/injection, schedule: Q01DX001 (ip), vehicle: saline) was 98 % of control, the T/C (dose: 200.0 mg/kg/injection, schedule: Q01DX001 (ip), vehicle: saline) was 100 % of control and the T/C (dose: 400.0 mg/kg/injection, schedule: Q01DX001 (ip), vehicle: saline) was 99 % of control.

With `O=[N+]([O-])c1cc([N+](=O)[O-])c2ccccc2c1NS(=O)(=O)c1ccc(Cl)c(Cl)c1Cl` the T/C [12] was 104 % of control and the T/C [13] was 120 % of control.

For `CCOc1ccc(C(/C(Cl)=N/O)C(Cl)(Cl)Cl)cc1` (stereo not given), the T/C (dose: 5.5 mg/kg/injection, schedule: Q01DX009 (ip), vehicle: Klucel (hydroxypropylcellulose) (HPC)) was 109 % of control, the T/C (dose: 6.25 mg/kg/injection, schedule: Q04DX003 (ip), vehicle: Klucel (hydroxypropylcellulose) (HPC)) was 100 % of control and the T/C (dose: 8.2 mg/kg/injection, schedule: Q01DX009 (ip), vehicle: Klucel (hydroxypropylcellulose) (HPC)) was 100 % of control. The T/C (dose: 12.5 mg/kg/injection, schedule: Q04DX003 (ip), vehicle: Klucel (hydroxypropylcellulose) (HPC)) was 95 % of control, the T/C [1] was 100 % of control and the T/C (dose: 35.0 mg/kg/injection, schedule: Q04DX003 (ip), vehicle: Klucel (hydroxypropylcellulose) (HPC)) was 120 % of control. For the same molecule, the T/C (dose: 55.0 mg/kg/injection, schedule: Q04DX003 (ip), vehicle: Klucel (hydroxypropylcellulose) (HPC)) was 110 % of control, the T/C (dose: 80.0 mg/kg/injection, schedule: Q04DX003 (ip), vehicle: Klucel (hydroxypropylcellulose) (HPC)) was 110 % of control and the T/C (dose: 120.0 mg/kg/injection, schedule: Q04DX003 (ip), vehicle: Klucel (hydroxypropylcellulose) (HPC)) was 100 % of control.

In the case of `CN(C)c1ccc2cc3ccc(N(C)C)cc3nc2c1`, the T/C (dose: 3.12 mg/kg/injection, schedule: Q04DX003 (ip), vehicle: water) is reported as 93 % of control, the T/C (dose: 6.25 mg/kg/injection, schedule: Q04DX003 (ip), vehicle: water) is reported as 106 % of control and the T/C (dose: 12.5 mg/kg/injection, schedule: Q04DX003 (ip), vehicle: water) is reported as 99 % of control. The T/C (dose: 25.0 mg/kg/injection, schedule: Q04DX003 (ip), vehicle: water) was 109 % of control and the T/C (dose: 50.0 mg/kg/injection, schedule: Q04DX003 (ip), vehicle: water) was 115 % of control.

With `CC(C)(C)C1=CC(C(C)(C)C)CCC1=O` (stereo not given) the T/C (dose: 50.0 mg/kg/injection, schedule: Q01DX009 (ip), vehicle: saline) was 86 % of control, the T/C (dose: 75.0 mg/kg/injection, schedule: Q04DX003 (ip), vehicle: saline) was 110 % of control and the T/C (dose: 100.0 mg/kg/injection, schedule: Q01DX009 (ip), vehicle: saline) was 109 % of control. For the same molecule, the T/C (dose: 150.0 mg/kg/injection, schedule: Q04DX003 (ip), vehicle: saline) was 110 % of control, the T/C (dose: 200.0 mg/kg/injection, schedule: Q01DX009 (ip), vehicle: saline) was 118 % of control and the T/C (dose: 300.0 mg/kg/injection, schedule: Q04DX003 (ip), vehicle: saline) was 120 % of control.

With `CCC[CH2][Sn]1([CH2]CCC)[O]C(=O)C[S]1` the T/C (dose: 0.78 mg/kg/injection, schedule: Q04DX003 (ip), vehicle: saline with Tween-80) was 100 % of control, the T/C (dose: 1.56 mg/kg/injection, schedule: Q04DX003 (ip), vehicle: saline with Tween-80) was 113 % of control and the T/C (dose: 2.0 mg/kg/injection, schedule: Q04DX003 (ip), vehicle: saline with Tween-80) was 112 % of control. The T/C (dose: 3.0 mg/kg/injection, schedule: Q04DX003 (ip), vehicle: saline with Tween-80) was 116 % of control.

With `C[C@@H]1C[C@@]2(C)C(=CC1=O)CC[C@@H]1C2=CC[C@@]2(C)[C@H]1CC[C@]2(C)O` the T/C [4] was 100 % of control and 110 % of control, the T/C (dose: 100.0 mg/kg/injection, schedule: Q04DX003 (ip), vehicle: alcohol) was 100 % of control and the T/C [10] was 90 % of control and 100 % of control. The T/C (dose: 200.0 mg/kg/injection, schedule: Q04DX003 (ip), vehicle: alcohol) was 105 % of control, the T/C [11] was 90 % of control and 113 % of control and the T/C (dose: 400.0 mg/kg/injection, schedule: Q04DX003 (ip), vehicle: alcohol) was 95 % of control.

`CC(C)C1NC(=O)C(N)C(C)OC(=O)C(C(C)C)N(C)C(=O)CN(C)C(=O)C2CCCN2C1=O` (stereo not given) (tested in a mixture with another compound) (H-TVP[Sar][NMeV]; ester 1-C; configuration not given here) was tested, and the T/C (dose: 0.05 mg/kg/injection, schedule: Q01DX009 (ip), vehicle: saline + alcohol) was 201 % of control, the T/C (dose: 0.1 mg/kg/injection, schedule: Q01DX009 (ip), vehicle: saline + alcohol) was 260 % of control and the T/C (dose: 0.2 mg/kg/injection, schedule: Q01DX009 (ip), vehicle: saline + alcohol) was 531 % of control. For the same molecule, the T/C (dose: 0.3 mg/kg/injection, schedule: Q04DX003 (ip), vehicle: saline + alcohol) was 239 % of control, the T/C (dose: 0.4 mg/kg/injection, schedule: Q01DX009 (ip), vehicle: saline + alcohol) was 96 % of control and the T/C (dose: 0.6 mg/kg/injection, schedule: Q04DX003 (ip), vehicle: saline + alcohol) was 281 % of control and 187 % of control. The T/C (dose: 1.2 mg/kg/injection, schedule: Q04DX003 (ip), vehicle: saline + alcohol) was 107 % of control.

For `CCS(=O)C(C)(C)C` (stereo not given), the T/C [12] was 102 % of control, the T/C [13] was 102 % of control and the T/C [14] was 102 % of control.

With `Cc1c(N2CCCCC2)[nH]c2ccccc12` the T/C [3] was 100 % of control, the T/C [5] was 100 % of control and the T/C (dose: 200.0 mg/kg/injection, schedule: Q04DX003 (ip), vehicle: Klucel (hydroxypropylcellulose) (HPC)) was 95 % of control.
